Tests used:
D(4) dopamine receptor = biological target: T1, D(4) dopamine receptor (Homo sapiens, UniProt P21917)
T1 sequence (P21917 whole entry): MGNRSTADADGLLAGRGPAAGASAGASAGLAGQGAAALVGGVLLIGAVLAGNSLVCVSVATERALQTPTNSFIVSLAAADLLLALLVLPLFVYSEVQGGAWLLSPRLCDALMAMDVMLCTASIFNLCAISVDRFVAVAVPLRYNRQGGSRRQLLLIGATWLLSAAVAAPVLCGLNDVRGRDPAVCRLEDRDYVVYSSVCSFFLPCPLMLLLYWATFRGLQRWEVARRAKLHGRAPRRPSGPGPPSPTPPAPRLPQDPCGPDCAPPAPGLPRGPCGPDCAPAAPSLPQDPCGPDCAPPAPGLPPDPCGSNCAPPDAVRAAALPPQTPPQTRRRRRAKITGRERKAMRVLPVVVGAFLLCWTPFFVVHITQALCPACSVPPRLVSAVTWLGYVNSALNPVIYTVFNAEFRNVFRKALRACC
Description: Binding affinity towards Dopamine type 4 receptor was determined by competitive displacement assays using [3H]-YM 09151 as the competitive ligand

[1] = biological target: T2, Adrenergic receptor alpha-1 (Rattus norvegicus, UniProt P15823+P23944+P43140); experiment: Binding affinity towards Alpha-1 adrenergic receptor was determined by competitive displacement assays using rat brain homogenate with [3H]prazosin as the competitive ligand; assay type: tissue-based
T2 sequence (P15823 whole entry): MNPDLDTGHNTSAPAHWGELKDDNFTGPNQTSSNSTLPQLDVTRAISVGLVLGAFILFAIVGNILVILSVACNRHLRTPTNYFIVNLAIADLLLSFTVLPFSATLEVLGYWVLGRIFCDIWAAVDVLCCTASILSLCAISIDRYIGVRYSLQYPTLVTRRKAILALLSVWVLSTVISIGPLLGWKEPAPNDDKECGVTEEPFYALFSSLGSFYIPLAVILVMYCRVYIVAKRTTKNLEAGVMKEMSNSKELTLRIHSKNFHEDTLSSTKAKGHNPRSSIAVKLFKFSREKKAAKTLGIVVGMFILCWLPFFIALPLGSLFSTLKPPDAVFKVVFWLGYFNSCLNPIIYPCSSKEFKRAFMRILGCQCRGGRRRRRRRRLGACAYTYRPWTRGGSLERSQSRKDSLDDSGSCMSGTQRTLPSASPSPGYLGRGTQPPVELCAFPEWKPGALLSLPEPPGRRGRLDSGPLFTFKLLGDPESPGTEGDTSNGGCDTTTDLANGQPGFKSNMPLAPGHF
T2 sequence (P23944 whole entry): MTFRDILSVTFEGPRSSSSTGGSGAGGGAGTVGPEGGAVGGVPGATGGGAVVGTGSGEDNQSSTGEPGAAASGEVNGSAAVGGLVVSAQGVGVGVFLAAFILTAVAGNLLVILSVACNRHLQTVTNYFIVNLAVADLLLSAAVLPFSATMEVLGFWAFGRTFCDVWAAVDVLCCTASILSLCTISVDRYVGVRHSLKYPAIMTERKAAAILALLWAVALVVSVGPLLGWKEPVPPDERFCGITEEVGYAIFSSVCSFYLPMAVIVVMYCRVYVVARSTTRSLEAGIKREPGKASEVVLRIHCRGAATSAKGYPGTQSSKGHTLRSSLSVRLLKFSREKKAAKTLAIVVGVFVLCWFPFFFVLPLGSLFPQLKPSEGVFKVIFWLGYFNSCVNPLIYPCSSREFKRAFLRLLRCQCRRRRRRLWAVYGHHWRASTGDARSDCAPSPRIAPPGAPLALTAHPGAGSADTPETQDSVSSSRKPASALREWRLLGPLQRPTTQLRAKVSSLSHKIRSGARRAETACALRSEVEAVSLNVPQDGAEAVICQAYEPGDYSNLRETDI
T2 sequence (P43140 whole entry): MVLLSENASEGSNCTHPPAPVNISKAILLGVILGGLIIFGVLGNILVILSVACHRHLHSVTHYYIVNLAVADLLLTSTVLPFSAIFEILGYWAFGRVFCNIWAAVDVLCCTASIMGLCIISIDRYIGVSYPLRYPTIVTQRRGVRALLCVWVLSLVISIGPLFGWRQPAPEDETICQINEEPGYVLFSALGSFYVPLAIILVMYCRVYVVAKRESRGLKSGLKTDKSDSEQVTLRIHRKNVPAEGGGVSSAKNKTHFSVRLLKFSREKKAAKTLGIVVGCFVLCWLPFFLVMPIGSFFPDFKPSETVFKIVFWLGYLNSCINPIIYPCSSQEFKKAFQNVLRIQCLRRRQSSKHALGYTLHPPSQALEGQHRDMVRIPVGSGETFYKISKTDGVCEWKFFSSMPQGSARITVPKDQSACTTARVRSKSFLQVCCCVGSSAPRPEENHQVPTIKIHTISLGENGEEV

Rattus norvegicus [2] = experiment: Minimum effective dose required for significant dose dependent reduction of amphetamine-induced locomotor activity in male Sprague-Dawley rats on subcutaneous administration (30 min prior to receiving amphetamine 0.5 mg/kg); assay type: functional; settings: sc, read-out: MED
Rattus norvegicus [3] = organism: Rattus norvegicus; experiment: Minimum effective dose required in the catalepsy experiment in rats; showed no significant effect at this dose; assay type: functional; settings: read-out: MED
Rattus norvegicus [4] = organism: Rattus norvegicus; experiment: Minimum effective dose required in the catalepsy experiment in rats; assay type: functional; settings: read-out: MED

Ki (D(4) dopamine receptor) | Ki [1] | SMILES | minimal effective dose (Rattus norvegicus [2]) | minimal effective dose (Rattus norvegicus [3]) | minimal effective dose (Rattus norvegicus [4])
8 nM | 100 nM | COC(=O)[C@@H]1Cc2ccccc2N1C(=O)CN1CCN(Cc2ccc(C)cc2)CC1 |  |  | 
3 nM | 1060 nM | COc1cc(Cl)ccc1CN1CCN(CC(=O)N2c3ccccc3C[C@H]2C)CC1 | > 4 mg/kg |  | 
27 nM | > 10000 nM | C[C@@H]1Cc2ccccc2N1C(=O)CN1CCN(Cc2ccccc2F)CC1 |  |  | 
2 nM | 807 nM | Cc1ccc(CN2CCN(CC(=O)N3c4ccccc4C[C@H]3C)CC2)cc1F |  |  | 
 |  | CN1CCN(C2=Nc3cc(Cl)ccc3Nc3ccccc32)CC1 [CLOZAPINE] | 1 mg/kg | > 40 mg/kg | 
 | 2180 nM | C=C[C@@H]1Cc2ccccc2N1C(=O)CN1CCN(Cc2ccc(Cl)cc2)CC1 |  |  | 
 |  | Cc1ccc(CN2CCN(CC(=O)N3c4ccccc4C[C@H]3C)CC2)cc1 | > 4 mg/kg |  | 
3 nM | 1130 nM | C[C@@H]1Cc2ccccc2N1C(=O)CN1CCN(Cc2ccc3c(c2)OCO3)CC1 |  |  | 
6 nM |  | C[C@@H]1Cc2ccccc2N1C(=O)CN1CCN(Cc2cccc(F)c2)CC1 |  |  | 
 |  | C[C@@H]1Cc2ccccc2N1C(=O)CN1CCN(Cc2ccc(Cl)cc2)CC1 | > 8 mg/kg |  | 
10 nM |  | CC(C)c1ccc(Cl)cc1CN1CCN(CC(=O)N2c3ccccc3C[C@H]2C)CC1 |  |  | 
1760 nM | 453 nM | O=C(O)[C@@H]1Cc2ccccc2N1C(=O)CN1CCN(Cc2ccc(Cl)cc2)CC1 |  |  | 
5 nM | > 1000 nM | COC(=O)[C@@H]1Cc2ccccc2N1C(=O)CN1CCN(Cc2ccc(Cl)cc2)CC1 |  |  | 
12 nM | > 1000 nM | C[C@@H]1Cc2ccccc2N1C(=O)CN1CCN(Cc2ccc(F)c(F)c2Cl)CC1 |  |  | 
3 nM | 1330 nM | CC[C@@H]1Cc2ccccc2N1C(=O)CN1CCN(Cc2ccc(C)cc2)CC1 |  |  | 
11 nM | 1090 nM | CCOc1ccc(Cl)cc1CN1CCN(CC(=O)N2c3ccccc3C[C@H]2C)CC1 |  |  | 
 |  | O=C(CCCN1CCC(O)(c2ccc(Cl)cc2)CC1)c1ccc(F)cc1 [HALOPERIDOL] | 0.06 mg/kg |  | 0.5 mg/kg
29 nM | 1660 nM | COc1ccc(OC)c(CN2CCN(CC(=O)N3c4ccccc4C[C@H]3C)CC2)c1 |  |  | 
6 nM | > 10000 nM | C[C@@H]1Cc2ccccc2N1C(=O)CN1CCN(Cc2cc(F)c(Cl)cc2F)CC1 |  |  | 
5 nM | 980 nM | COc1ccc(Cl)cc1CN1CCN(CC(=O)N2c3ccccc3C[C@H]2C)CC1 |  |  | 
> 1000 nM |  | O=C(NCc1ccccc1)[C@@H]1Cc2ccccc2N1C(=O)CN1CCN(Cc2ccc(Cl)cc2)CC1 |  |  | 

Reference: ChEMBL document CHEMBL1134937, “Indoline and piperazine containing derivatives as a novel class of mixed D(2)/D(4) receptor antagonists. Part 2: asymmetric synthesis and biological evaluation” (Bioorg Med Chem Lett, 2002)
